The test system of assay [1] is Mongrel dogs (left ventricular pressure, dp/dt max). The experiment in a line: Cardiotonic activity (dp/dt max change, anesthetized dogs, i.v.). The format is in vivo. Conditions: Canis lupus familiaris, intravenous, read-out: dp/dt M.C. (percentage of dp/dt max changes). The procedure: Test Method A (Cardiotonic activity): Mongrel dogs of either sex were anesthetized with sodium pentobarbital, 35 mg/kg, i.p. The animals were allowed to breathe spontaneously. The left carotid artery was isolated and a catheter (USCI, #8F) filled with heparinized saline was inserted and advanced into the left ventricle. the catheter was connected to a pressure transducer (Nihonkohden, MPU-0.5A) to measure the left ventricular pressure, from which dp/dt max was derived by analog computing. To measure the systemic blood pressure the left femoral artery was cannulated. The blood pressure pulse was used to trigger a heart rate meter. Another catheter was positioned in the vena cave through right femoral vein for injection of drugs. Systemic blood pressure, left ventricular pressure, dp/dt max and heart rate were recorded simultaneously on a polygram (Nihonkohden, RJG-4008). Test compound was dissolved in distilled water (0.2 ml/kg) or dimethyl sulfoxide (0.04 ml/kg) and injected into the femoral veing. The parameters after dosing were compared with those during the predosing period. Test results were represented in terms of percentage of dp/dt max changes (dp/dt M.C) calculated by following formula, and are shown in table 1. [formula]

Assay [2] concerns platelet aggregation induced by collagen. The experiment in a line: Anti-platelet activity: collagen-induced aggregation of rabbit platelet rich plasma. It is filed as cell-based. Conditions: Oryctolagus cuniculus, 2 min, rabbit PRP, collagen 2.5 μg/ml, pH 7.4, 37° C., read-out: ID50 Collagen. On the procedure: (§1) Test Method B (Anti-platellet activity):
(§2) Platelet rich plasma (PRP) which contains 6.5-7.5×10^8 platelet/ml was prepared from rabbit blood. To the 200 μl of PRP, 5 μl of calcium chloride (1 mM) and 50 μl of pH 7.4 Tris-acetate solution (5 mM) containing 120 mM NaCl and test compound were added successively, and then stirred for 2 min. at 37° C. To the solution, 5 μl of adenosine diphosphate (ADP) (2.5 μM) or collagen (2.5 μg/ml) was added as an aggregation inducer. Aggregation was measured by using an aggregometer (NKK HEMA TRACER 1).

Assay [3] concerns platelet aggregation induced by adenosine diphosphate (ADP). The experiment in a line: Anti-platelet activity: ADP-induced aggregation of rabbit platelet rich plasma. Conditions: Oryctolagus cuniculus, 2 min, rabbit PRP, ADP 2.5 μM, pH 7.4, 37° C., read-out: ID50 ADP. The format is cell-based. The procedure:
as §1, §2

Assay [4] relates to Mongrel dogs (cerebral blood flow). The experiment in a line: Cerebrovascular vasodilative activity (cerebral blood flow, anesthetized dogs, i.v.). The format is in vivo. Conditions: intravenous. On the procedure:
Test Method C (Cerebrovescular vasodilative activity):
Mongrel dogs of either sex were anesthetized with sodium pentobarbital (35 mg/kg. i.p.). After the external carotid artery was ligated, a flowmeter probe was fitted to the common carotid artery. Polyethylene cannulas were inserted in the femoral artery for measurement of blood pressure and in the saphenous vein for injection of drug. Blood pressure was measured with a pressure transducer and the arterial pulse was also used to trigger a heart rate meter. Blood pressure, heart rate and cerebral blood flow (C.B.F.) were recorded on a polygraph.
Test compound was dissolved in an equimolar solution of hydrochloric acid and diluted with water (0.2 ml/kg), and injected intravenously. The prarmeters after dosing were compared with those during the predosing period.

Assay [5] relates to uninephrectomized DOCA/saline male Wistar rats (mean arterial pressure). The experiment in a line: Antihypertensive activity (DOCA hypertensive rats, oral). The format is in vivo. The settings on record: 1.0 mg/kg. On the procedure:
Test Method D (Antihypertensive activity):
Five-week old male Wistar rats were uninephrectomized under anesthesia. Deoxycorticosterone acetate (DOCA) (30 mg/kg), suspended in peanut oil, was injected subcutaneously twice a week and 1% saline was substituted for the drinking water. Animals with mean blood pressure 150-200 mmHg were used for experiment between 5 and 7 weeks after surgery.
The test compounds were administered orally. Blood pressure was measured at the femoral artery by means of a pressure transducer and recorded as electrically integrated values of mean arterial pressure.

Counter-ions that a name gives are not always drawn.

Consider `Nc1cc(-c2ccncc2)c[nH]c1=O` [Amrinone, 3-Amino-5-(4-pyridyl)-2(1H)-pyridinone, reference compound], for which, in assay [1], the change in vivo at 0.1 mg/kg worked out at 9% and the change in vivo at 1 mg/kg is 80%.
Regarding `COc1ccc(-c2cc(=Nc3c(C)cc(C)cc3C)n(C)c(=O)n2C)cc1OC` [Example 48, 3,4-dihydro-6-(3,4-dimethoxyphenyl)-1,3-dimethyl-4-(2,4,6-trimethylphenylimino)-2(1H)-pyrimidinone], the IC50 in assay [2] was determined as 150 nM; in assay [3] it was 240 nM. Further, the change in vivo at 0.01 mg/kg in assay [1] stood at 43%. For the same compound, the C.B.F. increase in assay [4] (0.01 mg/kg) was determined as 40.0%; in assay [4] (0.1 mg/kg) it was 57.0%.
As for `COc1ccc(-c2cc(=Nc3ccc(Cl)cc3C)n(C)c(=O)n2C)cc1OC` [Example 49, 4-(4-Chloro-2-methylphenylimino)-3,4-dihydro-6-(3,4-dimethoxyphenyl)-1,3-dimethyl-2(1H)-pyrimidinone], the change in vivo at 0.1 mg/kg in assay [1] worked out at 68%.
In the case of `COc1ccc(-c2cc(=Nc3cccnc3)n(C)c(=O)n2C)cc1OC` [Example 50, 3,4-dihydro-6-(3,4-dimethoxyphenyl)-1,3-dimethyl-4-(3-pyridylimino)-2(1H)-pyrimidinone dihydrochloride], the change in vivo at 1 mg/kg in assay [1] came to 98%.
Regarding `COc1ccc(-c2cc(=Nc3ccccc3)n(C)c(=O)n2C)cc1OC` [Example 55, 3,4-Dihydro-6-(3,4-dimethoxyphenyl)-1,3-dimethyl-4-phenylimino-2(1H)-pyrimidinone], the values for the C.B.F. increase in assay [4] (0.1 mg/kg) and in assay [4] (1.0 mg/kg) were 38.0% and 77.0%, respectively.
Take `COc1ccc(-c2cc(=Nc3cc(OC)c(OC)c(OC)c3)n(C)c(=O)n2C)cc1OC` [Example 56, 3,4-Dihydro-6-(3,4-dimethoxyphenyl)-1,3-dimethyl-4-(3,4,5-trimethoxyphenylimino)-2(1H)-pyrimidinone]: the change in vivo at 0.1 mg/kg in assay [1] came to 44%. Further, the change in vivo at 1 mg/kg in assay [1] is 88%. For the same compound, the C.B.F. increase in assay [4] (0.1 mg/kg) is listed as 50.0%; in assay [4] (1.0 mg/kg) it was 52.0%.
In the case of `COc1cc(OC)c(N=c2cc(-c3ccc(OC)c(OC)c3)n(C)c(=O)n2C)c(OC)c1` [Example 57, 3,4-Dihydro-6-(3,4-dimethoxyphenyl)-1,3-dimethyl-4-(2,4,6-trimethoxyphenylimino)-2(1H)-pyrimidinone], the values for the IC50 in assay [2] and in assay [3] were 420 nM and 300 nM, respectively. Besides, the change in vivo at 0.1 mg/kg in assay [1] is 60%. Also, the change in vivo at 1 mg/kg in assay [1] came to 126%. The “Effect Max (maximum decrease of blood pressure)” value in assay [5] is reported as 44.0%. The C.B.F. increase in assay [4] (0.01 mg/kg) was 59.0%; in assay [4] (0.1 mg/kg) it was 57.0%.
On to `COc1ccc(-c2cc(=Nc3c(C)cccc3C)n(C)c(=O)n2C)cc1OC` [Example 58, 3,4-Dihydro-6-(3,4-dimethoxyphenyl)-1,3-dimethyl-4-(2,6-dimethylphenylimino)-2(1H)-pyrimidinone], for which the IC50 in assay [2] is 190 nM; in assay [3], 340 nM. In addition, in assay [1], the change in vivo at 0.1 mg/kg was 84%. Moreover, the change in vivo at 1 mg/kg in assay [1] was 145%.
In the case of `COc1ccc(-c2cc(=Nc3ccc(O)cc3)n(C)c(=O)n2C)cc1OC` [Example 59, 3,4-Dihydro-6-(3,4-dimethoxyphenyl)-1,3-dimethyl-4-(4-hydroxyphenylimino)-2(1H)-pyrimidinone], the IC50 in assay [2] was found to be 230 nM. Also, in assay [1], the change in vivo at 0.1 mg/kg was found to be 57% and the change in vivo at 1 mg/kg is 158%. Further, in assay [3], the IC50 was 3600 nM.
With `COc1ccc(-c2cc(=Nc3c(C)cc(C)cc3C)n(C)c(=O)n2C)cc1` [Example 62, 3,4-Dihydro-1,3-dimethyl-6-(4-methoxyphenyl)-4-(2,4,6-trimethylphenylimino)-2(1H)-pyrimidinone], in assay [1], the change in vivo at 1 mg/kg turned out to be 102%.
For `COc1ccc(-c2cc(=Nc3c(C)cc(C)cc3C)n(C)c(=O)[nH]2)cc1OC` [Example 64, 3,4-Dihydro-6-(3,4-dimethoxyphenyl)-3-methyl-4-(2,4,6-trimethylphenylimino)-2(1H)-pyrimidinone], in assay [1], the change in vivo at 0.1 mg/kg worked out at 98% and the change in vivo at 1 mg/kg turned out to be 93%.
On the same counts, the results for `CCCn1c(-c2ccc(OC)c(OC)c2)cc(=Nc2c(C)cc(C)cc2C)n(C)c1=O` [Example 65, 3,4-Dihydro-6-(3,4-dimethoxyphenyl)-3-methyl-1-n-propyl-4-(2,4,6-trimethylphenylimino)-2(1H)-pyrimidinone] are 50% and 206%.
As to `COc1ccc(-c2cc(=Nc3c(C)cc(C)cc3C)[nH]c(=O)n2C)cc1OC` [Example 69, 3,4-Dihydro-6-(3,4-dimethoxyphenyl)-1-methyl-4-(2,4,6-trimethylphenylimino)-2(1H)-pyrimidinone], in assay [1], the change in vivo at 0.01 mg/kg amounted to 45% and the change in vivo at 0.1 mg/kg was determined as 42%.
As to `CCn1c(-c2ccc(OC)c(OC)c2)cc(=Nc2c(C)cc(C)cc2C)n(C)c1=O` [Example 72, 3,4-dihydro-6-(3,4-dimethoxyphenyl)-1-ethyl-3-methyl-4-(2,4,6-trimethylphenylimino)-2(1H)-pyrimidinone], the IC50 in assay [2] came out at 170 nM; in assay [3], 790 nM. In addition, in assay [1], the change in vivo at 0.01 mg/kg worked out at 12%. In addition, the change in vivo at 0.1 mg/kg in assay [1] was 95%. Besides, in assay [5], the “Effect Max (maximum decrease of blood pressure)” value worked out at 38.0%. The figures for the C.B.F. increase in assay [4] (0.1 mg/kg) and in assay [4] (1.0 mg/kg) were 35.0% and 59.0%, respectively.
